Measured values: a melting point compilation (Tetko et al.; mined from patent text by program, amines drawn as free bases though some values may be those of a salt)

| melting point [°C] | Compound |
| --- | --- |
| 88 to 89 | CC(C)(C)OC(=O)Nc1cccc(C(=O)OCOC(=O)C(C)(C)C)c1 |
| 177 to 180 | CC(C)(CCn1cncn1)NCC(O)c1ccc(O)c(CO)c1 (centres undefined) |
| 180 to 185 | c1nc(-c2ccc3c(c2)OCO3)c2cc3c(cc2n1)OCO3 |
| 210 to 212 | CC(C)(C)NC(=O)c1ccc(-c2ccc3nnn(Cc4ccc5ncccc5c4)c3n2)cc1F |
| 134 to 137 | CON=C(C(=O)OC)c1ccccc1COc1ccc2c(c1)OCC2=O |
| 185 | CS(=O)(=O)N1CCN(C(CC2Cc3cc(C(N)=O)ccc3O2)C(=O)NO)CC1 (centres undefined) |
| 169 | CNC(=O)N(O)Cc1ccc(-c2ccccc2)s1 |
| 213 to 214 | CCNc1nc(C)c(-c2ccnc(Nc3ccc(N4CCCCC4)c(C)c3)n2)s1 |
| 147 to 150 | COc1cc2ncc(C#N)c(Nc3cccc(NC(C)=O)c3)c2cc1OC |
| 204 to 206 | COc1cc2cc(-c3c[nH]c4ccccc34)cnc2cc1OC |
| 58 to 63 | CCOC(=O)c1sc(Br)c(Br)c1Cl |
| 224 to 225 | Nc1nc(N)c2cc(Cc3ccc(Cl)cc3)ccc2n1 |
| 155 to 158 | CCN1CCN(Cc2nc3sc(Br)cc3c(=O)n2-c2ccccc2Cl)CC1 |
| 192 to 194 | CN(C)CC1Cc2ccc(NC(=O)c3ccc(-c4ccc(Cl)cc4)cc3)cc2C1 (centres undefined) |
| 131 to 135 | COc1cc(-n2nc3n(c2=S)CCSC3)c(Cl)cc1Cl |
| 136 to 138 | CC(C)NC(=O)Nc1ccnc(Br)c1 |
| 86 to 90 | CC1=NS(=O)(=O)N(C)C(Cl)=N1 |
| 101 to 103 | C#CCC(NC(=O)c1ccccc1)C(C)=O (centres undefined) |
| 85 to 87 | CNc1ccc(C#N)cc1 |
| 30 to 31 | CCOc1ccnc(Cl)n1 |
| 152 to 154 | C=CCNc1c(CO)cnc2cn(C(C)(C)OC)nc12 |
| 92 to 93 | CCOP(=O)(Cc1ccc(-c2nc3cccc(Cl)c3o2)cc1)OCC |
| 158 | CCC(CC)C(=O)O[C@H]1C[C@H](O)C=C2C=C[C@H](C)[C@H](CC[C@@H]3C[C@@H](O)CC(=O)O3)[C@H]21 |
| 124 to 126 | COc1cccc(COc2ccc(S(=O)(=O)c3ccc(C)nc3Nc3c(C)cc(C)cc3C)cc2)c1 |

| melting point [°C] | Compound |
| --- | --- |
| 213 | O=C(Nc1ccc(Cl)cc1)c1cccc(/C=C/c2ccccn2)c1 |
| 114 to 116 | Sc1c(Br)cc(Br)cc1Br |
| 148 | O=Cc1c(Br)nc(-c2ccccc2)n1Cc1cc2c(cc1Cl)OCO2 |
| 182 to 183 | CCCc1nc(CO)n2[nH]c(=O)nc2c1Cc1ccc(-c2ccccc2-c2nnn[nH]2)cc1 |
| 181 to 182 | CSCN1C(=O)c2cccnc2N(CSC)c2cc(Cl)ccc21 |
| 90 to 93 | CC(C)(C)c1cc(C(=O)Cl)cc(C(C)(C)C)c1O |
| 208 to 209 | CC(C)(N)c1ccc(-c2nc(Nc3ccc(-n4cncn4)cc3)ncc2C#N)cc1 |
| 126 to 128 | COC(=O)C(C)Oc1ccc(Nc2cc(NC(C)=O)c(F)cc2[N+](=O)[O-])cc1 (centres undefined) |
| 117 to 125 | CCOC(=O)c1cnc2n(c1=O)CCc1ccccc1-2 |
| 147 to 148 | CC(C)(C)C(NC(=O)Cc1ccc2cccnc2c1)NC(=NC#N)Nc1cccc2ncccc12 (centres undefined) |
| 171 to 172 | OCCN(CCO)c1cc(-c2ccccn2)nc(-c2ccccn2)c1 |
| 132 to 134 | CCCCCc1c(O)ccc2c1OCCC2=O |
| 155 to 157 | COC1C=C(C)C(=O)CC(C)(C)C1OC(=O)c1ccc2nc[nH]c2c1 (centres undefined) |
| 202 to 203 | CC1(c2ccccc2)OC(=S)Nc2ccc(-c3cccc(Cl)c3)cc21 (centres undefined) |
| 230 to 231 | CC(=O)Nc1ccc(C=CC(=O)C2C(=O)OC(=O)C(C(C)=O)=C2O)cc1 (centres undefined) |
| 220 to 221 | O=C(O)Cc1ccc(NC(=O)C(COc2cccc(Cl)c2)NS(=O)(=O)c2ccc(Cl)cc2)cc1 (racemic) |
| 200 to 203 | O=C1N(N2CCOCC2)c2ccccc2C1(Cc1ccncc1)Cc1ccncc1 |
| 75 to 78 | CCOC(=O)c1c(C)nc(NN)c2nnn(CC)c12 |
| 74 | COc1cc(F)c(F)cc1C=O |
| 257 to 259 | O=C1CC(c2ccccc2)Cc2[nH]c3c(c21)CCCC3 (centres undefined) |
| 203 to 206 | CCn1cc(C(=O)O)c(=O)c2cc(F)c(N3CCC(CN)CC3)nc21 |
| 128 to 129 | CC(=O)OCC(=O)C1=CCC2C3CCC4=CC(=O)CCC4(C)C3=CCC12C (centres undefined) |
| 47 to 50 | COC(=O)C=CC(C)=Cc1cc(N)ccc1Cl |
| 38 to 38.8 | CCCCCCCCCCCCCCCCCCOCC(CBr)OCCCCCCCCCCCCCCCCCC (centres undefined) |

| melting point [°C] | Compound |
| --- | --- |
| 85 to 88 | Cc1c(C(=O)Cl)ccc(S(C)(=O)=O)c1-c1ccon1 |
| 140 | CCc1ccc(C=CC(=O)O)cc1 |
| 120 to 125 | FC(F)(F)c1ccc(Cl)c(CN2CCNc3ncc(I)cc32)c1 |
| 144 to 150 | CCCc1nc(-n2c(C)ccc2C)c(/C=C/C(=O)O)n1Cc1ccc(-c2ccccc2-c2nnn[nH]2)cc1 |
| 91 to 93 | CC(C)(C)OC(=O)NCCN1CC2CNCC(C1)O2 |
| 170 to 172 | COC(=O)CC[C@H](NC(=O)c1ccc(CCn2cnc3nccc-3c2O)cc1)C(=O)OC |
| 174 to 176 | O=C(NCNc1c(Nc2cccnc2)c(=O)c1=O)c1ccc(Cl)cc1 |
| 220 to 221 | CN(c1cccc2cc(C(N)=O)[nH]c12)S(=O)(=O)c1nccs1 |
| 165 to 181 | Cc1cc2c(cc1C)C(=CC#N)OC2=O |
| 158 to 159 | N#CC(=Cc1ccc2c(c1)OCCO2)c1cccnc1 |
| 52 to 53 | CCOC(=S)c1c(CC)nc(C)nc1NCCc1ccc(OC)c(OC)c1 |
| 108 to 110 | O=S(=O)(NCc1ccc(Br)cc1)c1ccccc1Br |
| > 300 | Cc1cc2c(c3ccc(=O)[nH]c13)O[C@@H](CN)[C@@H]2CO (racemic) |
| 123 to 124 | COc1ccc(CC(=O)NC(C)(C)C(O)c2ccccc2)cc1OC (centres undefined) |
| 196 to 198 | CCC(CC)c1ccc(Cl)c2nc3n(c12)CCCCN3c1c(C)cc(C)cc1OC |
| 130 to 131 | CCOC(=O)COc1ccc2c(-c3ccccc3F)noc2c1Br |
| 152 to 154 | Cc1c2ccccc2c(O[Si](C)(C)C(C)(C)C)c2occ(CCC=O)c12 |
| 169 to 171 | CCOc1c(OC)cc(COc2ccc(N)nn2)cc1OC |
| 144 to 145 | CCCn1nc2c(N)nc3c(c2c1CCCc1cc(C)no1)CCCC3 |
| 87 to 88 | CCOC1(OCC)OC(C)=C(C(=O)OC)[C@@H](NC(C)=O)[C@@H]1C (relative stereo) |
| 155 to 156 | CN(Cc1sc2c(=O)c(C(=O)NCc3ccc(Cl)cc3)cn(C)c2c1COCC[Si](C)(C)C)CC(O)c1cnccn1 (centres undefined) |
| 90 | COC(=O)C=Cc1cc(Oc2c(Cl)cc(C(F)(F)F)cc2Cl)ccc1[N+](=O)[O-] |
| 102 to 104 | NC(C=Cc1ccc(Cl)cc1)=NO |
| 89 to 92 | CC(=O)OC1CSC(Oc2cccnc2C(=O)N2CCCCC2)C(OC(C)=O)C1OC(C)=O (centres undefined) |

| Compound | melting point [°C] |
| --- | --- |
| CON=Cc1ncn2c1[C@@H]1CCCN1C(=O)c1c(Cl)cccc1-2 | 194 to 195 |
| CCCc1c(C(=O)C2CCCCC2)c2ccc(C(N)=O)cc2n1Cc1ccccc1Cl | 208 to 210 |
